In ChEMBL document CHEMBL4507259 (2021):

Experiments:
[1] = molecular target: 5-hydroxytryptamine receptor 1D (Homo sapiens) (UniProt P28221); conditions: Compound concentration 10.0 uM
[2] = molecular target: Mitogen-activated protein kinase kinase kinase 15 (Homo sapiens) (UniProt Q6ZN16); conditions: Compound concentration 1000.0 nM
[3] = molecular target: Activated CDC42 kinase 1 (Homo sapiens) (UniProt Q07912); conditions: Compound concentration 1000.0 nM
[4] = molecular target: P2X receptor (Rattus norvegicus) (UniProt P51579+P49653+P51578+Q64663+P47824+P51577+P49654); experiment: P2X CEREP ligand profiling; format: protein assay; conditions: filed as agonist; Compound concentration 10.0 uM
[5] = molecular target: Phosphatidylinositol 4,5-bisphosphate 3-kinase catalytic subunit beta isoform (Homo sapiens) (UniProt P42338); conditions: Compound concentration 1000.0 nM
[6] = molecular target: Mitogen-activated protein kinase kinase kinase 9 (Homo sapiens) (UniProt P80192); conditions: Compound concentration 1000.0 nM
[7] = system: Phosphatidylinositol 4,5-bisphosphate 3-kinase catalytic subunit alpha isoform (Homo sapiens), P42336 [C420R]; conditions: Compound concentration 1000.0 nM
[8] = molecular target: Mitogen-activated protein kinase 6 (Homo sapiens) (UniProt Q16659); conditions: Compound concentration 1000.0 nM
[9] = molecular target: Ankyrin repeat and protein kinase domain-containing protein 1 (Homo sapiens) (UniProt Q8NFD2); conditions: Compound concentration 1000.0 nM
[10] = molecular target: Myosin light chain kinase, smooth muscle (Homo sapiens) (UniProt Q15746); conditions: Compound concentration 1000.0 nM
[11] = molecular target: Tyrosine-protein kinase Fes/Fps (Homo sapiens) (UniProt P07332); conditions: Compound concentration 1000.0 nM
[12] = molecular target: Serine/threonine-protein kinase PAK 1 (Homo sapiens) (UniProt Q13153); conditions: Compound concentration 1000.0 nM
[13] = system: Mast/stem cell growth factor receptor Kit (Homo sapiens), P10721 [L576P]; conditions: Compound concentration 1000.0 nM
[14] = molecular target: T1, Muscarinic acetylcholine receptor M5 (Homo sapiens) (UniProt P08912); experiment: M5 (h) CEREP ligand profiling; conditions: filed as antagonist, Compound concentration 10.0 uM
T1 sequence (whole entry): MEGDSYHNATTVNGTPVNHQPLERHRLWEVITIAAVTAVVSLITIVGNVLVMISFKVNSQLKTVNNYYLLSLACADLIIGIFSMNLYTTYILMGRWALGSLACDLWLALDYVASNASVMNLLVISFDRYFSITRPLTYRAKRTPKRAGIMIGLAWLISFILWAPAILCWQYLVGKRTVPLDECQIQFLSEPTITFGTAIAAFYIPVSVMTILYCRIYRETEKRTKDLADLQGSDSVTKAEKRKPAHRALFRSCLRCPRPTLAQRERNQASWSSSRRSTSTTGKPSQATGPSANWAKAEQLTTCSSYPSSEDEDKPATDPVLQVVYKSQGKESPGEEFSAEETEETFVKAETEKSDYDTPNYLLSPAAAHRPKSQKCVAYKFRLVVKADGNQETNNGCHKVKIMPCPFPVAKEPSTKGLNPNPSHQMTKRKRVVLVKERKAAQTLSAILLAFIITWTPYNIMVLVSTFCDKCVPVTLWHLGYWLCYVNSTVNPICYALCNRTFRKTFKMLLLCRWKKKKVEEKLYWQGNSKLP

[15] = molecular target: Transient receptor potential cation channel subfamily M member 6 (Homo sapiens) (UniProt Q9BX84); conditions: Compound concentration 1000.0 nM
[16] = molecular target: Cyclin-dependent kinase 5 (Homo sapiens) (UniProt Q00535); conditions: Compound concentration 1000.0 nM
[17] = molecular target: 5-hydroxytryptamine receptor 2B (Homo sapiens, UniProt P41595); experiment: 5-HT2B (h) CEREP ligand profiling; conditions: filed as agonist, Compound concentration 10.0 uM
[18] = system: Hepatocyte growth factor receptor (Homo sapiens), P08581 [M1250T]; conditions: Compound concentration 1000.0 nM
[19] = molecular target: Cyclin-dependent kinase 19 (Homo sapiens) (UniProt Q9BWU1); conditions: Compound concentration 1000.0 nM
[20] = molecular target: Alpha-1D adrenergic receptor (Homo sapiens) (UniProt P25100); conditions: Compound concentration 10.0 uM
[21] = molecular target: 5-hydroxytryptamine receptor 1B (Homo sapiens) (UniProt P28222); experiment: 5-HT1B CEREP ligand profiling; conditions: filed as antagonist; Compound concentration 10.0 uM
[22] = molecular target: T1, Muscarinic acetylcholine receptor M5 (Homo sapiens); conditions: Compound concentration 10.0 uM
[23] = molecular target: Dual specificity mitogen-activated protein kinase kinase 7 (Homo sapiens) (UniProt O14733); conditions: Compound concentration 1000.0 nM
[24] = molecular target: Serine/threonine-protein kinase tousled-like 1 (Homo sapiens) (UniProt Q9UKI8); conditions: Compound concentration 1000.0 nM
[25] = molecular target: TGF-beta receptor type-2 (Homo sapiens) (UniProt P37173); conditions: Compound concentration 1000.0 nM
[26] = molecular target: Histamine H2 receptor (Homo sapiens) (UniProt P25021); conditions: Compound concentration 10.0 uM
[27] = molecular target: Cyclin-dependent kinase 2 homolog (Plasmodium falciparum (isolate 3D7)) (UniProt P61075); conditions: Compound concentration 1000.0 nM
[28] = molecular target: Sodium-dependent serotonin transporter (Homo sapiens, UniProt P31645); experiment: 5-HT transporter (h) CEREP ligand profiling; conditions: filed as antagonist, Compound concentration 10.0 uM
[29] = molecular target: Tyrosine-protein kinase Blk (Homo sapiens) (UniProt P51451); conditions: Compound concentration 1000.0 nM
[30] = system: Mast/stem cell growth factor receptor Kit (Homo sapiens), P10721 [V559D]; conditions: Compound concentration 1000.0 nM
[31] = molecular target: Mitogen-activated protein kinase kinase kinase 19 (Homo sapiens) (UniProt Q56UN5); conditions: Compound concentration 1000.0 nM
[32] = molecular target: Vasoactive intestinal polypeptide receptor 1 (Homo sapiens) (UniProt P32241); experiment: VPAC1 (VIP1) (h) CEREP ligand profiling; conditions: filed as agonist, Compound concentration 10.0 uM
[33] = molecular target: Mitogen-activated protein kinase kinase kinase 20 (Homo sapiens) (UniProt Q9NYL2); conditions: Compound concentration 1000.0 nM
[34] = system: Epidermal growth factor receptor (Homo sapiens), P00533 [L858R,T790M]; conditions: Compound concentration 1000.0 nM
[35] = molecular target: Phosphatidylinositol 5-phosphate 4-kinase type-2 beta (Homo sapiens) (UniProt P78356); conditions: Compound concentration 1000.0 nM
[36] = molecular target: Ribosomal protein S6 kinase beta-1 (Homo sapiens) (UniProt P23443); conditions: Compound concentration 1000.0 nM

Mitogen-activated protein kinase 6 (Homo sapiens), sequence (Q16659 whole entry, the tested form may be a part): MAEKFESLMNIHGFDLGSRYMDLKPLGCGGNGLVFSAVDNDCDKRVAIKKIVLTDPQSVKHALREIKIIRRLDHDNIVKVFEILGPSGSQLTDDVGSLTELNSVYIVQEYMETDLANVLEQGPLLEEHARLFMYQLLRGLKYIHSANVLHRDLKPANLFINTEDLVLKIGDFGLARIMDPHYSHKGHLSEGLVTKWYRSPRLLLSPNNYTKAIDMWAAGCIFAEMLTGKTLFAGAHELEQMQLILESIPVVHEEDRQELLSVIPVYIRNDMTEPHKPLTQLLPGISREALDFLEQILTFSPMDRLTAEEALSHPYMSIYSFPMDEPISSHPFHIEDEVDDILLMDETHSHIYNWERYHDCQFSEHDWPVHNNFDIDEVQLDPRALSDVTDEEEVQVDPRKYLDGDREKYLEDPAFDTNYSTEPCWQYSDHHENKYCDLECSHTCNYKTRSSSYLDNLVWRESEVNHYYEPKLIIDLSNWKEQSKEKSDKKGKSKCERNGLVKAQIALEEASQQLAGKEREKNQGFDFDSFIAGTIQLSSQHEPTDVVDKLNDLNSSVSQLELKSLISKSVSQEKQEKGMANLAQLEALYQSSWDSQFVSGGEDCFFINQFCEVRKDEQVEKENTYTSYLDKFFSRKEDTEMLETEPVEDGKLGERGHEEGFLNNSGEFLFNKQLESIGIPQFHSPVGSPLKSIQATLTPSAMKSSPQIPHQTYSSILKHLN
Dual specificity mitogen-activated protein kinase kinase 7 (Homo sapiens), sequence (O14733 whole entry): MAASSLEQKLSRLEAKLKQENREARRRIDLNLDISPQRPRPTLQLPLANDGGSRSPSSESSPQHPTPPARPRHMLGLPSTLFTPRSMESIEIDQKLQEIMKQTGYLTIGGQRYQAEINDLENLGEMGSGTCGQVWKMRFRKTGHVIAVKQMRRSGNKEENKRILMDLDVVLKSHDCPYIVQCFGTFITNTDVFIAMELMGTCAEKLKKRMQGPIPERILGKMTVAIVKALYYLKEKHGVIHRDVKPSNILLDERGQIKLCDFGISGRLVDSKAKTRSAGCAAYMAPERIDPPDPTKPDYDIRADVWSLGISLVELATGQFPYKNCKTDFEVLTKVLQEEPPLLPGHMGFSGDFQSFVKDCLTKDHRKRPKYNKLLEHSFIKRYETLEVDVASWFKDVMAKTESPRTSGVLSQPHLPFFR
Transient receptor potential cation channel subfamily M member 6 (Homo sapiens), sequence (Q9BX84 whole entry): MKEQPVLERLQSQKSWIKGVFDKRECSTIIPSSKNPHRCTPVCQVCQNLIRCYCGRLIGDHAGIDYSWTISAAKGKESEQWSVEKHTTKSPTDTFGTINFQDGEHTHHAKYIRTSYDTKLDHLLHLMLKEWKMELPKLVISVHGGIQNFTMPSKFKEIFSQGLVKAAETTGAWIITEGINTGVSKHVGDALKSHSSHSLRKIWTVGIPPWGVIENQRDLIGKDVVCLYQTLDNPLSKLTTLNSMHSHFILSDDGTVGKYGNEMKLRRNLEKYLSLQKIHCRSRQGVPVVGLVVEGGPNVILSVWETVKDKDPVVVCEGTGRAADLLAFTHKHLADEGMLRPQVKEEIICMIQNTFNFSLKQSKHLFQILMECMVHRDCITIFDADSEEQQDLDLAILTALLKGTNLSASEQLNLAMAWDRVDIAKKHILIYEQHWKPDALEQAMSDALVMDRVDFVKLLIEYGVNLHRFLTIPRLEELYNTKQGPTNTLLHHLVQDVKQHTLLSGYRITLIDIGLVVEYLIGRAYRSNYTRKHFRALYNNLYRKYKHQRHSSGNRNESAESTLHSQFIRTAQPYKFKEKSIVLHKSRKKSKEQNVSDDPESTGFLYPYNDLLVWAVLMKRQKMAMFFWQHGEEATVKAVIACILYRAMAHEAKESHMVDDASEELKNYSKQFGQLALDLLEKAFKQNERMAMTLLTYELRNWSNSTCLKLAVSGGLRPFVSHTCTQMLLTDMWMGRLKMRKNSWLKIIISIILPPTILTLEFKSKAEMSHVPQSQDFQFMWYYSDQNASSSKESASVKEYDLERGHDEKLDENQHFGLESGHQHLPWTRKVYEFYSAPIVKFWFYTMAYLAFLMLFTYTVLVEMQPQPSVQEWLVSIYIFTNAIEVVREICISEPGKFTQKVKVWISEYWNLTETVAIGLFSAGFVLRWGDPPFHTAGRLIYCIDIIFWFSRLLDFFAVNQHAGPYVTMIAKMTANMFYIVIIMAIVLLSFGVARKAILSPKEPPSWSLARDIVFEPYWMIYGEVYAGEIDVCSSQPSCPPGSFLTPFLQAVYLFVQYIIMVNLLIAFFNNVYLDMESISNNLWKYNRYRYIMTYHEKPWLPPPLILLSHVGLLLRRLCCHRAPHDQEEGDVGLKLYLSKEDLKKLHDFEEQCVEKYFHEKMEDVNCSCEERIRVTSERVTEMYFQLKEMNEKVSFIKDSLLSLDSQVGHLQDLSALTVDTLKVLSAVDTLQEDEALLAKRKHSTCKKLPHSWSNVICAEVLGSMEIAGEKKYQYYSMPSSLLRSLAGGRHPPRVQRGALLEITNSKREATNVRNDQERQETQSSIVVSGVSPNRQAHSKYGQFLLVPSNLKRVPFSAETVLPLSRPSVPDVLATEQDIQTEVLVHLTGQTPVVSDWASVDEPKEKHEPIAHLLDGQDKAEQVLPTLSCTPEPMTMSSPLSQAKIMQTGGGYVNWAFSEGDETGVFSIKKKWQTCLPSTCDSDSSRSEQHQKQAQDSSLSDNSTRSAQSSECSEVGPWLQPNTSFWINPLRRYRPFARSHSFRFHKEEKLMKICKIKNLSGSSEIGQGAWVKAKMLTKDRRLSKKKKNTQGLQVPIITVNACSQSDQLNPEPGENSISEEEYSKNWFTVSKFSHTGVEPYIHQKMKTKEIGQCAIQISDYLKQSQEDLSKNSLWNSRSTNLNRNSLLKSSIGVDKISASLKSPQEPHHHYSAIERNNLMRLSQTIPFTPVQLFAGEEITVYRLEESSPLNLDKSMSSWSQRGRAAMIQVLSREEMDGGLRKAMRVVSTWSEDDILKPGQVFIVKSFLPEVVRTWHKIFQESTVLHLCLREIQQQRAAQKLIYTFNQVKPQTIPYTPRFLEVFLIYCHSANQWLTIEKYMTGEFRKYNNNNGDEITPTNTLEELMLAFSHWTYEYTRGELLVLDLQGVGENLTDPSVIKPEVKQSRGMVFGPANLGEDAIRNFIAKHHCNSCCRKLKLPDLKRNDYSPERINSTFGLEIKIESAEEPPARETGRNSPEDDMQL
5-hydroxytryptamine receptor 1B (Homo sapiens), sequence (P28222 whole entry): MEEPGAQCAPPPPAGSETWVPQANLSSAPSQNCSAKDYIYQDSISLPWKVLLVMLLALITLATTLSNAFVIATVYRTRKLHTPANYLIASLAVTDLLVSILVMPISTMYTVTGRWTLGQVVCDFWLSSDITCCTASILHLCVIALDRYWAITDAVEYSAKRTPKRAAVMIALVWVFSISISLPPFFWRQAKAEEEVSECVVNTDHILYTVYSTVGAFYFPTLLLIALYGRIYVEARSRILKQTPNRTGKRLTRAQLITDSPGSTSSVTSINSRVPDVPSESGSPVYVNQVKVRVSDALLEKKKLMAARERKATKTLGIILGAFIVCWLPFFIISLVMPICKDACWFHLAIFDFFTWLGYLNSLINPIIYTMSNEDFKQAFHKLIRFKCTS
Mitogen-activated protein kinase kinase kinase 9 (Homo sapiens), sequence (P80192 whole entry, looked up, canonical isoform): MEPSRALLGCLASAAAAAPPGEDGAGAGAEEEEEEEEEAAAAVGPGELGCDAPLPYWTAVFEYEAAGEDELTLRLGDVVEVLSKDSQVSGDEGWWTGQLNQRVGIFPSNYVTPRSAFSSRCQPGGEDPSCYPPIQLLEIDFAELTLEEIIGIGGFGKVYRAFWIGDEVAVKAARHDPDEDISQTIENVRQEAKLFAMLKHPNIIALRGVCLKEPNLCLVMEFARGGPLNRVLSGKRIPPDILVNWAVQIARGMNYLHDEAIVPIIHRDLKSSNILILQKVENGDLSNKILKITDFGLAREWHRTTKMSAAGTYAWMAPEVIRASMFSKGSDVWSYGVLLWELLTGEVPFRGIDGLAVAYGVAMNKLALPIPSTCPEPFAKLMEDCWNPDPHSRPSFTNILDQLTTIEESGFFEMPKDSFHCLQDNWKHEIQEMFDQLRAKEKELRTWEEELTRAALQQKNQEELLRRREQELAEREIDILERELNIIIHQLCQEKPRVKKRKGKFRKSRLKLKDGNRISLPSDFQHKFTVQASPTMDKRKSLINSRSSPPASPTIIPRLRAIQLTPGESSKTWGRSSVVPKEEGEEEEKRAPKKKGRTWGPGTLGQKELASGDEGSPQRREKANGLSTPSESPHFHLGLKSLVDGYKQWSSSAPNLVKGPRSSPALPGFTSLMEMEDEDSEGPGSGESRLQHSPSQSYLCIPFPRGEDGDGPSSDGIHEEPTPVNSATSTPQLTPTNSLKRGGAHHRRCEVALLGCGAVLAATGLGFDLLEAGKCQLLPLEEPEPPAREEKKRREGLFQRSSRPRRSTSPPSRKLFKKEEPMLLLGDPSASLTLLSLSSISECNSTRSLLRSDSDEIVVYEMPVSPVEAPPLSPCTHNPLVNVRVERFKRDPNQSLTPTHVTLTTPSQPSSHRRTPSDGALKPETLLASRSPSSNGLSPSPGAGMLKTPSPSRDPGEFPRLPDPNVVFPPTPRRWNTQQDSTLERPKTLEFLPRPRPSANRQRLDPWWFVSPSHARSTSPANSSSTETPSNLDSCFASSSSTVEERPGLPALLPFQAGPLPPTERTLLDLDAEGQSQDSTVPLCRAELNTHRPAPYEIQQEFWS
Phosphatidylinositol 5-phosphate 4-kinase type-2 beta (Homo sapiens), sequence (P78356 whole entry): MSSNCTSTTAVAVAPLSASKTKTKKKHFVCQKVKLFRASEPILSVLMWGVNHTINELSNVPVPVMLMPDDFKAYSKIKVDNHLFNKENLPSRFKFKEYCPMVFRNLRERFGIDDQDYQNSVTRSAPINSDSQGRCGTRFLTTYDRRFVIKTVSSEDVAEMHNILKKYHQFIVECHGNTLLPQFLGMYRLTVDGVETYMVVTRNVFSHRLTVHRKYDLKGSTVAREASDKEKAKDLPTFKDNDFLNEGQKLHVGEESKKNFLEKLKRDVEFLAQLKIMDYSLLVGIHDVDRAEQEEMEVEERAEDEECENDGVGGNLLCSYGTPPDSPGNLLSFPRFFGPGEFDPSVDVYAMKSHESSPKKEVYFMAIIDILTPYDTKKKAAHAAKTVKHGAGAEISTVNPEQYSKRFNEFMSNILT

CNC(=O)Nc1ccc2c(c1)CC[C@@]21OC(=O)N(CC(=O)N(Cc2ccc(F)cc2)[C@@H](C)C(F)(F)F)C1=O [A-485]
inactive: inhibition [1] 18% | residual activity [2] 77% | residual activity [3] 90% | inhibition [4] 12% | residual activity [5] 94% | residual activity [6] 89% | residual activity [7] 80% | residual activity [8] 100% | residual activity [9] 81% | residual activity [10] 66% | residual activity [11] 94% | residual activity [12] 88% | residual activity [13] 100% | inhibition [14] 8% | residual activity [15] 100% | residual activity [16] 84% | inhibition [17] 73% | residual activity [18] 75% | residual activity [19] 96% | inhibition [20] -1.58% | inhibition [21] -6% | inhibition [22] 2.39% | residual activity [23] 97% | residual activity [24] 88% | residual activity [25] 90% | inhibition [26] 28.2% | residual activity [27] 91% | inhibition [28] 99% | residual activity [29] 100% | residual activity [30] 100% | residual activity [31] 78% | inhibition [32] -5% | residual activity [33] 82% | residual activity [34] 91% | residual activity [35] 69% | residual activity [36] 100%

CNC(=O)Nc1ccc2c(c1)[C@@]1(CC2)OC(=O)N(CC(=O)N(Cc2ccc(F)cc2)[C@@H](C)C(F)(F)F)C1=O [A-486]
inactive: inhibition [1] 2.22% | residual activity [2] 90% | residual activity [3] 87% | inhibition [4] -5% | residual activity [5] 97% | residual activity [6] 100% | residual activity [7] 80% | residual activity [8] 97% | residual activity [9] 61% | residual activity [10] 88% | residual activity [11] 85% | residual activity [12] 98% | residual activity [13] 81% | inhibition [14] -8% | residual activity [15] 98% | residual activity [16] 79% | inhibition [17] 5% | residual activity [18] 100% | residual activity [19] 100% | inhibition [20] 9.73% | inhibition [21] -9% | inhibition [22] -2.77% | residual activity [23] 85% | residual activity [24] 100% | residual activity [25] 95% | inhibition [26] 6.93% | residual activity [27] 95% | inhibition [28] 40% | residual activity [29] 100% | residual activity [30] 100% | residual activity [31] 73% | inhibition [32] -8% | residual activity [33] 93% | residual activity [34] 83% | residual activity [35] 60% | residual activity [36] 100%
